Here are results for one substance from patent EP0311002A2, “Anthracyclin derivatives, a method for their preparation and their use as a drug” (HOECHST AKTIENGESELLSCHAFT, priority 1987, dated 1989).

The data set in a line: Qualitative solubility in solvents. It counts as physicochemical.

Turning to 5‴-Epi-Cytorhodin S, the Löslichkeit result (in Methanol, Ethylacetat, Chloroform und Toluol) is “leicht löslich” and the Löslichkeit result (in Wasser und Hexan) is recorded as “unlöslich”.
